Assay results: BindingDB's records for patent US12378192 (Chia Tai Tianqing Pharmaceutical Group Co., 2025)
pIC50: −log10 of the molar value.

Molecular target: Cytochrome P450 3A4 (Homo sapiens, UniProt P08684)
Experiment: CYP450 Enzyme Induction Study
Method: A final incubation system of 500 μL contained 50 μL of liver microsomes (protein concentration: 0.2 mg/mL, Corning), 1 μL of mixed specific substrates of CYP450 (CYP1A2, CYP2B6, CYP2C9, CYP2C19, CYP2D6, CYP3A4), 398 μL of PBS (pH 7.4), 1 μL of specific positive inhibitor (positive control) or test compound (in acetonitrile) and 50 μL of NADPH+MgCl2. Samples were prepared in duplicate of 0.5 mL for each CYP450 subtype. For each tube, the 450 μL mixed solution of substrates and enzyme and the NADPH solution were separately pre-incubated at 37° C. for 5 min. The 50 μL mixed solution of NADPH+MgCl2 was added for reaction. At 30 min, 50 μL of the mixture was taken and 300 μL of glacial acetonitrile containing an internal standard was added to terminate the reaction. Additionally, 2 blanks of 500 μL each were prepared in parallel without adding NADPH as the negative control group.

Chain of Cytochrome P450 3A4 (P08684 whole entry): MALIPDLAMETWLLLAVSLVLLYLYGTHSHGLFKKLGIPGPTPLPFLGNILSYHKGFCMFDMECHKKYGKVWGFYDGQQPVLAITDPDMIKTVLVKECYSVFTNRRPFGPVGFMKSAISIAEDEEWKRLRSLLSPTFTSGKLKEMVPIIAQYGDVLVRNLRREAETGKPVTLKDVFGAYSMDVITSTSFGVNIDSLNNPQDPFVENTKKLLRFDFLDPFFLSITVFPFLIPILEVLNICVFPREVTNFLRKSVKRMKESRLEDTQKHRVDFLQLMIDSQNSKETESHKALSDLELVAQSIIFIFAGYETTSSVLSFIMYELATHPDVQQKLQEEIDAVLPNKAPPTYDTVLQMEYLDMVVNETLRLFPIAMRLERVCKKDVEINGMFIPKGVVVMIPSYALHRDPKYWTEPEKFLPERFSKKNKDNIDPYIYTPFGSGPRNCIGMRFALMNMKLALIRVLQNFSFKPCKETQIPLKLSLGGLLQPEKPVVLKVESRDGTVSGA

Compound: Cc1c(C(=O)Nc2ccc(F)c(C#N)c2)c(C)n(C)c1C(=O)C(=O)NC(C)C(F)(F)F (stereo unspecified) [US12378192, Compound of formula I]
- pIC50: < 3.70
